Test results published in PMC8807399, “Synthesis, Characterization, and in vivo Evaluation of a Novel Potent Autotaxin-Inhibitor” (Frontiers in Pharmacology, 2022).
In brackets after ≈: the same amount, converted by molar mass.

What was measured:
[1] = test system: Nicotinic receptor (muscle); experiment: Off-target screen Nicotinic receptor (muscle); details: 10 µM; single point, duplicates
[2] = molecular target: T1, Angiotensin II receptor 1 (Homo sapiens, UniProt P30556); experiment: Off-target screen Angiotensin II receptor 1; type: binding; details: 10 µM; single point, duplicates
T1 construct: purchased Eurofins CEREP SA
T1 sequence (P30556 whole entry): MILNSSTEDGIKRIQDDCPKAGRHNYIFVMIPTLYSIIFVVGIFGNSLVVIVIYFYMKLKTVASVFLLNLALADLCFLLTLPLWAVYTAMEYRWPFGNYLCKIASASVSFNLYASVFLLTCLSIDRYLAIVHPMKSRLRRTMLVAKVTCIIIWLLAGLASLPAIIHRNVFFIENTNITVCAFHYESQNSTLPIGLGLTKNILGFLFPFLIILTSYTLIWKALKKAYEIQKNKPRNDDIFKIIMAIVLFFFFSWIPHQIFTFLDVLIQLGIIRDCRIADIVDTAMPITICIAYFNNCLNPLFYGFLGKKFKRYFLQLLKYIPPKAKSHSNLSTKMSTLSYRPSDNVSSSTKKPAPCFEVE

[3] = molecular target: T2, Beta1-adrenoreceptor (Homo sapiens, UniProt P08588); experiment: Off-target screen Beta1-adrenoreceptor; type: binding; details: 10 µM; single point, duplicates
T2 construct: purchased Eurofins CEREP SA
T2 sequence (P08588 whole entry): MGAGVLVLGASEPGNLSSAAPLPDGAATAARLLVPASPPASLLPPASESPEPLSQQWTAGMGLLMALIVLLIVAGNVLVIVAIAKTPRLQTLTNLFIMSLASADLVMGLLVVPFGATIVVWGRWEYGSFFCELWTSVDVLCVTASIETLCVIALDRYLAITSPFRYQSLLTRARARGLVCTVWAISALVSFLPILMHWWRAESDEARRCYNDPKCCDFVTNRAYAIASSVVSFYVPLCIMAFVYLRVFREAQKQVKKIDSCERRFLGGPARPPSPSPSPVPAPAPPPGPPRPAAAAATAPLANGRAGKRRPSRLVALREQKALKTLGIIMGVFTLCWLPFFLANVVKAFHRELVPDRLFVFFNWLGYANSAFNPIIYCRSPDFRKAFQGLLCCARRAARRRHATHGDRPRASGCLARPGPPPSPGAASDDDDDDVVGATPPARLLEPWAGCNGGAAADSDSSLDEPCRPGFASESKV

[4] = molecular target: T3, S1P1 (Homo sapiens, UniProt P21453); experiment: Off-target screen S1P1, agonist mode; type: cell-based; details: 10 µM, single point, duplicates
T3 construct: purchased Eurofins CEREP SA
T3 sequence (P21453 whole entry): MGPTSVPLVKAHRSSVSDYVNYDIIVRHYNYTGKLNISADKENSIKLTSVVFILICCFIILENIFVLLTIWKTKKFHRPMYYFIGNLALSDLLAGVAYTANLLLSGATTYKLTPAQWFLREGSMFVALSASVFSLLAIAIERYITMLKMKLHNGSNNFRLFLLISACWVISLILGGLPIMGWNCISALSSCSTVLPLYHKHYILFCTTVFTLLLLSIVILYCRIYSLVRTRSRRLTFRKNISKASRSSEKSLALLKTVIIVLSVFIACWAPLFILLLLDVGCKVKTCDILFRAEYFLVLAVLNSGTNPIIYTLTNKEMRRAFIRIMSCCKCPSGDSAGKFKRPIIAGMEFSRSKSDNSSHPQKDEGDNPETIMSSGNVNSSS

[5] = molecular target: T4, ECE-1 (Homo sapiens, UniProt P42892); experiment: Off-target screen ECE-1; type: biochemical; details: 10 µM; single point, duplicates
T4 construct: purchased Eurofins CEREP SA
T4 sequence (P42892 whole entry): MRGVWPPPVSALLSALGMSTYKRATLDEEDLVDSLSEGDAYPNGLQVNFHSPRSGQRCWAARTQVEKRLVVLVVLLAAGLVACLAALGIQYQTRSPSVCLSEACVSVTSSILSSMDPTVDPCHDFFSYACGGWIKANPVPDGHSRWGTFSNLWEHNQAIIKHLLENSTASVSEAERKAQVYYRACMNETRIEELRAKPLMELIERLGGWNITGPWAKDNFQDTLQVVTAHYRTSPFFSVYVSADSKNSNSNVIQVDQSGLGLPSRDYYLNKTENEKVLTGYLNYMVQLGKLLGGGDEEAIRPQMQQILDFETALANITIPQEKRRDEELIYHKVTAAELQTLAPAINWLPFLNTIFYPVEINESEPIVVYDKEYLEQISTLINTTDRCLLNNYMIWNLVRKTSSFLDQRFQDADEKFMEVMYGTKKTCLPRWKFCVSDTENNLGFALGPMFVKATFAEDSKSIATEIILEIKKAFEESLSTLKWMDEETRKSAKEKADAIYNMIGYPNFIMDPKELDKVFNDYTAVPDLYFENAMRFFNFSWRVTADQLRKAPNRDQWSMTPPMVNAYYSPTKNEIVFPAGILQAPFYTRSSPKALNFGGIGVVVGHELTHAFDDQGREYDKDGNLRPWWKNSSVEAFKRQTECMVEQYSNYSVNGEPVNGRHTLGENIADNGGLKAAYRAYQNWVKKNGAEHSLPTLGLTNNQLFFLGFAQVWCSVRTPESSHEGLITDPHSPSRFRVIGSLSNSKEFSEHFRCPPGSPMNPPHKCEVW

[6] = molecular target: T5, Xanthine oxidase (Bos taurus, UniProt P80457); experiment: Off-target screen Xanthine oxidase; type: biochemical, b; details: 10 µM; single point, duplicates
T5 construct: purchased Eurofins CEREP SA
T5 sequence (P80457 2-1332): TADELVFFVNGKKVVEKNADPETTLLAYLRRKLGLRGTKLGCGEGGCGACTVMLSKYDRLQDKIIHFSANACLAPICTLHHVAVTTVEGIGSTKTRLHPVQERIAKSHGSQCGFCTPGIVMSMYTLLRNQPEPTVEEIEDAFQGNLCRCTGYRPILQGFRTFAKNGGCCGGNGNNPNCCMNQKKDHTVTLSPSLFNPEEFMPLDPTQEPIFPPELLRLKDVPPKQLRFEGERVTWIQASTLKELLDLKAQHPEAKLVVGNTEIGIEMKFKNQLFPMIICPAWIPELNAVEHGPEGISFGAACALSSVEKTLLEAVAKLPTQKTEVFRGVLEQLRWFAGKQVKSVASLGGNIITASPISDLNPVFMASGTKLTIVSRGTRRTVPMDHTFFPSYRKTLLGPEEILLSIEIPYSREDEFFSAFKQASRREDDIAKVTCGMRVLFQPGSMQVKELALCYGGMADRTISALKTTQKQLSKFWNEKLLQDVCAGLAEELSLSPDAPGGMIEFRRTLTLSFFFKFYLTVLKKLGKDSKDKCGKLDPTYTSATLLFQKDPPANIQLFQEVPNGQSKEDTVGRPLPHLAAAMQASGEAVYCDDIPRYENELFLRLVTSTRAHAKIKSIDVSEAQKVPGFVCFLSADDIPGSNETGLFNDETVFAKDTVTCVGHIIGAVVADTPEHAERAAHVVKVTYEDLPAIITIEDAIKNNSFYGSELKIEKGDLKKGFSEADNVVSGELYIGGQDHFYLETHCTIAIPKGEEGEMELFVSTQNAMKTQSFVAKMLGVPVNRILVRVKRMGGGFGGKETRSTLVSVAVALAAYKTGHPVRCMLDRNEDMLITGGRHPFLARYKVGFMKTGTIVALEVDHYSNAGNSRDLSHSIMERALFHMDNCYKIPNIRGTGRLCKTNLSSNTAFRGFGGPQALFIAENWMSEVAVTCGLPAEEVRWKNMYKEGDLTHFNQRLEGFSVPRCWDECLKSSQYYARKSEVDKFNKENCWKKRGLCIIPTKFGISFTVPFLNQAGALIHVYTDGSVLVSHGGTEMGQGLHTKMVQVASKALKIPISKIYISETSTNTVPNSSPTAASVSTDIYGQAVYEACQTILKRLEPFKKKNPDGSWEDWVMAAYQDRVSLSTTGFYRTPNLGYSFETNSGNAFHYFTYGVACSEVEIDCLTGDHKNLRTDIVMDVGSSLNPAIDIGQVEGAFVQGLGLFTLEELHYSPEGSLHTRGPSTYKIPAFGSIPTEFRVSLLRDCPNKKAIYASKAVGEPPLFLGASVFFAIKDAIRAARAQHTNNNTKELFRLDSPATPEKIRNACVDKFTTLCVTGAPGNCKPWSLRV

[7] = test system: total basal plasma LPA; experiment: Plasma LPA profile in rat (PK/PD), basal LPA; type: in vivo
Experimental: Plasma samples were collected in triplicates at 0, 1, 3, 6, and 24 h and were added to heparinated tubes and kept at 0°C until further processing. Sampling and immediate processing at 0°C is crucial for the measurements of basal levels, since at higher temperatures, LPA is produced rapidly according to the ATX activity in the sample. One aliquot was used to determine basal levels of LPAs 16:0, 18:0, 18:1, and 20:4 as well as exposure of 13 by LC-MS/MS. A detailed method for LPA analysis is described in the Supplementary Material Section 1.3. The other 2 aliquots were used to determine ATX activity by incubation of the sample at 37°C for 4 h, followed again by analysis of LPA levels in the same way as for the basal LPA levels. LPA profiles were analyzed using MS Excel (Microsoft Corporation).
Therefore, modulation of total basal LPA was largely driven by modulation of LPA 20:4 (Figure 2A).

[8] = test system: I/R model rats; experiment: Retinal ischemia/reperfusion (I/R) model; type: in vivo, rat; details: for ERG b-wave amplitude: I/R + ATX-i eyes vs control; for ERG a-wave amplitude: I/R + ATX-i group vs control
Experimental: Diets containing compound 13 were manufactured by ssniff Spezialdiäten GmbH (Soest, Germany). Calculations of the daily doses were based on average food intake of rats used in the studies. The regular chow diet for the 60 mg/kg dose was calculated as 8.5 kg and mixed with a solution of 13 in ethanol (4.8%, w/w). The amount of 13 used was 1.0 g per kg of food. After mixing, ethanol was removed in vacuo until dryness. For the preparation of the 20 mg/kg dose, the same procedure was used by applying 0.333 g of 13 per kg of food.
The oral treatment with the ATX-inhibitor 13 (ATX-i; 20 mg/kg; Roche) started 7 days prior to immunization and 3 days prior I/R induction and continued throughout the study. The regular chow diet for the treatment groups was replaced with the same chow diet containing the treatment substance.
An established I/R model was used ([Schmid et al., 2014]; [Renner et al., 2017]). Therefore, rats were anesthetized with a ketamine/xylazine/vetranquil cocktail (0.65/0.65/0.2 ml). One eye per animal was dilated with 5% tropicamide (Pharma Stulln, Stulln, Germany) and anesthetized topically with conjuncain (Bausch and Lomb, Berlin, Germany). Additionally, a pain medication injection of metamizole (Novalgin; Zentiva, Frankfurt am Main, Germany) was administered subcutaneously. IOP was raised to 140 mmHg for 60 min by elevating a saline reservoir connected to a needle, which was placed into the anterior chamber of the eye. Retinal ischemia was confirmed by observing whitening of the retina via an ophthalmoscope (Mini 300; Heine Optotechnik, Herrsching, Germany). Reperfusion was later reassured by observing the returning blood flow. The contralateral eye was used as a control. Analyses were performed 7 and 14 days after ischemia induction.
ERG measurements were performed on all eyes 7 and 14 days after I/R induction as previously described ([Schmid et al., 2014]; [Palmhof et al., 2018]). Before performing the ERG under dim red light, rats were dark adapted overnight. The readings were done using a full-field flash electroretinograph (HMs ERG system, OcuScience, Henderson, NV, United States). After anesthesia with a ketamine/xylazine cocktail (100/4 mg/kg) eyes were dilated and topically anesthetized. Reference electrodes were placed subcutaneously below the right and left ear and a ground electrode was placed in the base of the tail. Silver thread recording electrodes were placed in the center of the cornea. Scotopic flash ERGs were recorded at 0.1, 0.3, 1, 3, 10, and 25 cd*s/m^2 for each eye (7 days: 5-6 eyes/group; 14 days: 6-7 eyes/group). Signals obtained from the corneal surface were then amplified, digitized, and averaged using ERG View 4.380R software (OcuScience).
After explantation, eyes and optic nerves were fixed in 4% paraformaldehyde for 60 min (eyes) or 120 min (optic nerves) and then treated with 30% sucrose overnight. Afterwards, the retinas and optic nerves were embedded in NEG-50 Tissue-Tek medium (Thermo Fisher, Waltham, MA, United States). Cryo-cross sections of the eyes (10 µm) or longitudinal sections of the optic nerves (4 µm) were cut on a microtome (Thermo Fisher), mounted on Histobond Superfrost^+ slides (Thermo Fisher) and fixed in ice cold acetone for 10 min.
Retinal cross-sections from the I/R studies were stained with hematoxylin and eosin (H&E) to visualize retinal layers and changes in the thickness of the layers using standard protocols (7 days: 5-6 retinas/group; 14 days: 6-7 retinas/group). The thickness of the ganglion cell layer (GCL) was analyzed with the measuring tool of the ZEN2012 image analysis software (Zeiss, Oberkochen, Germany). Therefore, they were measured three times and the value was averaged ([Palmhof et al., 2019]).
Longitudinal optic nerve sections (EAG: 5-6 nerves/group, I/R 14 days: 6-7 nerves/group) were stained with H&E and luxol fast blue (LFB). […]

[9] = molecular target: T6, LPA2 receptor (Homo sapiens, UniProt Q9HBW0); experiment: Off-target screen LPA2 receptor, antagonist mode; type: cell-based; details: 10 µM, single point, duplicates
T6 construct: purchased Eurofins CEREP SA
T6 sequence (Q9HBW0 whole entry): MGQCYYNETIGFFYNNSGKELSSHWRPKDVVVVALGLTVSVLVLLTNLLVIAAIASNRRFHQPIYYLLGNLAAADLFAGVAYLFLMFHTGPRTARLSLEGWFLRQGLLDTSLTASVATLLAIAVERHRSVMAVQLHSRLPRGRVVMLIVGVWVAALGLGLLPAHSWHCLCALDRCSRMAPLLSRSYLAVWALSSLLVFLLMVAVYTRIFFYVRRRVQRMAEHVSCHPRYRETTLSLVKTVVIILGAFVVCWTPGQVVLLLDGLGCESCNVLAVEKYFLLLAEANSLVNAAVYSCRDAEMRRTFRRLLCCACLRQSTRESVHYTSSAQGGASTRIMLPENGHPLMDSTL

Question: With `O=C(OCc1ccc(OC(F)(F)F)cc1)N1C[C@@H]2CN(C(=O)c3ccc4[nH]nnc4c3)C[C@H]2C1` [Compound 13, (3aS,6aS)-5-(1H-Benzotriazole-5-carbonyl)-hexahydro-pyrrolo[3,4-c]pyrrole-2-carboxylic acid 4-trifluoromethoxy-benzyl ester] as the molecule, how does the “Nicotinic receptor (muscle) (h) [% inhib]” value [1] read?
Answer: 3 % inhib

Question: What about the “Angiotensin II receptor 1 (h) [% inhib]” value [2] of the same molecule?
Answer: 14 % inhib

Question: What about the “Beta1-adrenoreceptor (h) [% inhib]” value [3] of the same molecule?
Answer: 2 % inhib

Question: And the “S1P1 (h), agonist mode [% pos ctrl]” value [4]?
Answer: 5 % pos ctrl

Question: And the “ECE-1 (h) [% inhib]” value [5]?
Answer: 16 % inhib

Question: What about the “Xanthine oxidase (b) [% inhib]” value [6] of the same molecule?
Answer: 7 % inhib

Question: And the IC50 ([7]; Rattus norvegicus, free plasma concentration, male Wistar rats, 3, 10, 30 mg/kg po, sum of LPA 16:0, 18:0, 18:1, 20:4, read-out: IC50 for the lowering of total basal LPA)?
Answer: ~3.2 ng/mL (≈ 6.73 nM)

Question: What about the “Estimated average ATX inhibition” value ([7]; rat, food admix 20 mg/kg, 2-weeks study at steady state, estimated from PK/PD relationship) of the same molecule?
Answer: > 75%

Question: And the ERG b-wave amplitude ([8]; 7 days (p < 0.001))?
Answer: significantly lower

Question: What about the ERG b-wave amplitude ([8]; 14 days (p < 0.001)) of the same molecule?
Answer: significantly declined

Question: What about the ERG a-wave amplitude ([8]; 7 days, all light intensities (p < 0.050)) of the same molecule?
Answer: significant decrease

Question: And the ERG a-wave amplitude ([8]; 14 days, all light intensities (p > 0.050), vs I/R increased at 0.1 cd s/m^2 (p = 0.027))?
Answer: comparable to the control ones

Question: And the GCL thickness ([8]; I/R + ATX-i group, 20 mg/kg food admix, 7 days, I/R 4.03 ± 0.84, control 6.28 ± 1.57)?
Answer: 4.34 ± 1.63 µm

Question: And the “β-III tubulin protein level (Western Blot), retina” value ([8]; I/R + ATX-i group, 7 days, I/R 0.18 ± 0.17, control 1.39 ± 0.52)?
Answer: 0.28 ± 0.30

Question: What about the “Iba1 protein level (Western Blot), retina” value ([8]; I/R + ATX-i group, 7 days, I/R 0.61 ± 0.05, control 0.47 ± 0.11) of the same molecule?
Answer: 0.50 ± 0.21

Question: What about the “GFAP+ area, retina” value ([8]; I/R + ATX-i group, 7 days, I/R 3.44 ± 1.52, control 2.46 ± 1.41) of the same molecule?
Answer: 2.98 ± 1.13 area [%]/section

Question: And the “GFAP protein level (Western Blot), retina” value ([8]; I/R + ATX-i group, 7 days, I/R 4.00 ± 1.95, control 0.71 ± 0.33)?
Answer: 3.90 ± 1.14

Question: What about the “Cleaved caspase 3+ apoptotic RGCs” value ([8]; I/R + ATX-i group, 7 days, I/R 5.97 ± 1.93, control 2.62 ± 1.59) of the same molecule?
Answer: 6.21 ± 1.62 cells/mm

Question: And the “Brn-3a+ RGC number, retina” value ([8]; I/R + ATX-i group, 7 days, I/R 10.95 ± 2.48, control 48.29 ± 3.94, p = 0.008 vs I/R)?
Answer: 17.61 ± 1.63 cells/mm

Question: And the “ED1+ and Iba1+ co-labeled cells, retina” value ([8]; I/R + ATX-i group, 7 days, I/R 34.74 ± 6.57, control 0.81 ± 0.91, p = 0.045 vs I/R)?
Answer: 26.91 ± 4.48 cells/mm

Question: And the “Iba1+ microglia, retina” value ([8]; I/R + ATX-i group, 7 days, I/R 38.44 ± 7.75, control 5.65 ± 2.29, p = 0.045 vs I/R)?
Answer: 29.04 ± 5.19 cells/mm

Question: And the “β-III tubulin protein level (Western Blot), retina” value ([8]; I/R + ATX-i group, 14 days, I/R 0.06 ± 0.03, control 0.60 ± 0.08)?
Answer: 0.13 ± 0.08

Question: And the “Iba1 protein level (Western Blot), retina” value ([8]; I/R + ATX-i group, 14 days, I/R 0.95 ± 0.54, control 0.28 ± 0.19)?
Answer: 0.69 ± 0.44

Question: What about the “GFAP protein level (Western Blot), retina” value ([8]; I/R + ATX-i group, 14 days, I/R 1.60 ± 0.19, control 0.19 ± 0.06) of the same molecule?
Answer: 1.31 ± 0.66

Question: And the GCL thickness ([8]; I/R + ATX-i group, 14 days, I/R 2.76 ± 0.16, control 5.28 ± 0.43, p = 0.003 vs I/R)?
Answer: 3.54 ± 0.34 µm

Question: And the “Activated microglia (ED1+ and Iba1+), optic nerve” value ([8]; I/R + ATX-i group, 14 days, I/R 5.28 ± 0.76, control 0.06 ± 0.06)?
Answer: 5.71 ± 1.04 cells/image

Question: And the “Cleaved caspase 3+ cells” value ([8]; I/R + ATX-i group, 14 days, I/R 5.38 ± 0.83, control 2.58 ± 0.72)?
Answer: 5.02 ± 1.52 cells/mm

Question: What about the “Iba1+ cells, optic nerve” value ([8]; I/R + ATX-i group, 14 days, I/R 5.65 ± 0.75, control 2.74 ± 1.06) of the same molecule?
Answer: 6.10 ± 1.09 cells/image

Question: What about the “Brn-3a+ RGC number, retina” value ([8]; I/R + ATX-i group, 14 days, I/R 5.81 ± 2.85, control 56.32 ± 11.74, p = 0.017 vs I/R) of the same molecule?
Answer: 21.62 ± 8.84 cells/mm

Question: What about the “GFAP+ area, retina” value ([8]; I/R + ATX-i group, 14 days, I/R 7.02 ± 2.71, control 3.35 ± 0.98) of the same molecule?
Answer: 5.01 ± 1.70 area [%]/section

Question: What about the “ED1+ and Iba1+ activated microglia, retina” value ([8]; I/R + ATX-i group, 14 days, I/R 34.20 ± 9.12, control 2.99 ± 1.26) of the same molecule?
Answer: 28.27 ± 7.63 cells/mm

Question: What about the “Iba1+ microglia, retina” value ([8]; I/R + ATX-i group, 14 days, I/R 45.5 ± 11.78, control 26.28 ± 3.33) of the same molecule?
Answer: 41.17 ± 9.33 cells/mm

Question: And the “GFAP score, optic nerve” value ([8]; I/R + ATX-i group, 14 days, score 0-2, I/R 1.13 ± 0.13, control 0.89 ± 0.30)?
Answer: 1.23 ± 0.25

Question: What about the “Optic nerve LFB score” value ([8]; I/R + ATX-i group, 14 days, score 0-2, I/R 1.19 ± 0.25, control 0.54 ± 0.42) of the same molecule?
Answer: 1.09 ± 0.17

Question: And the “Optic nerve SMI-32 score” value ([8]; I/R + ATX-i group, 14 days, score 0-2, I/R 1.27 ± 0.31, control 0.47 ± 0.27)?
Answer: 1.05 ± 0.21

Question: What about the “Optic nerve H&E score” value ([8]; I/R + ATX-i group, 14 days, score 0-4, I/R 2.43 ± 0.37, control 0.77 ± 0.27) of the same molecule?
Answer: 2.25 ± 0.44

Question: And the “LPA2 receptor (h), antago. mode [% inhib]” value [9]?
Answer: 49 % inhib
